Test results: US20170182040A1, “EPITHELIAL ION CHANNEL (ENAC) BLOCKERS TO TREAT PSORIASIS” (The Board of Trustees of the Leland Stanford Junior …, priority 2014, published 2017)

Tested on: K14 Rac1 animal model for psoriasis
Experiment: K14 V12 Rac1 mouse model of psoriasis, IP treatment
Assay type: in vivo
Conditions: IP 10 mg/kg every other day, 20 treatments
Experimental: FIG. 1: IP treatment with benzamil ameliorates phenotype in a mouse model of psoriasis. […] (c) IP efficacy was dose-dependent (2.1-1.4-0.7 mg/kg 20 treatments) and distinct from another ENAC blocker Amiloride (10 mg/kg).
FIG. 4: Benzamil alter Rac/STAT3 signaling, has effect on human psoriatic keratinocytes. […] Effects on Rac1 and PSTAT3 by Benzamil (10 uM) were validated in human primary psoriatic keratinocytes (Rac1-green, PSTAT3-red, DNA-blue) (b).
Mice overexpressing a K14 driven hyperactive V12 Rac1 mutant display clinical-histologic features mimicking human psoriasis including hyperkeratosis, erythema, Koebnerization, Auspitz sign, arthritis, onychodystrophy, marked psoriasiform hyperplasia, parakeratosis, Munro microabcesses, dilated rete ridge blood vessels and characteristic immune infiltrates. Rac1 mouse and human psoriasis skin show similar epidermal thickness, suprabasilar Ki67, and increased expression of IL 1, 6, 17, 23, 36/CCL 2, 5, 17, 20/TNFα/TGFα/CARD14/IFIH1/IRFs, NFKB, STAT3 activation/β defensins/Act1/IL17R. Transcriptional comparison of psoriasis susceptibility genes in Rac1 mouse and human psoriatic skin show marked overlap of both epidermal and immune pathways. […] See, for example Winge et al. Journal of Investigative Dermatology (2014) 134, S9-S27.
Benzamil attenuates Rac1-mediated psoriasis in a mouse model. In a K14 Rac1 animal model for psoriasis, Benzamil was injected ip every other day for 0, 10 and 20 injections of (2 mg/kg), or PBS.
In psoriasis keratinocytes, cytokine-mediated nuclear translocation of PSTAT3 and NFκB is reduced following Benzamil treatment.

For `N=C(N)NC(=O)c1nc(Cl)c(N)nc1N` [Amiloride, amiloride], the Edema was “reduced”, the “Overall effect of IP treatment” value was “Little or no effect” and the “Psoriasiform hyperplasia (histology)” value was “retained”. For the same molecule, the “Rac1 activation, ki67 and TGFα expression and immune cell infiltration (CD3+/cd11c+)” value was “high” and the Scaling was “did not have distinct effect”.
